Data taken from paper PMC12279193 (Advanced Science, 2025).

Assays:
[1] = target: recombinant SARS-CoV-2 S-trimer protein; trimeric spike protein (Severe acute respiratory syndrome coronavirus 2, UniProt P0DTC2); assay: SPR (Biacore T200), spike trimer immobilised on CM5 chip; type: binding
[2] = target: SARS-CoV-2 S-RBD/ACE2 (Severe acute respiratory syndrome coronavirus 2, UniProt P0DTC2); assay: NanoBiT RBD/ACE2 interaction assay in HEK293 cells; type: cell-based

## CN(/N=C/c1ccccc1C(=O)O)c1nc(-c2ccccc2Cl)cs1 [S416]
[1]
  Kd: 6.88 µM
[2]
  IC50: 3.94 µM
